Data reported in patent US20260285871A1, “Polymorphic Compounds and Uses Thereof” (TYRA BIOSCIENCES, INC., priority 2022, published 2026).

Experiment: Crystallization (polymorph) studies of compound A free base: fast/slow evaporation, slurry at 25° C., anti-solvent addition, vapor diffusion; solids analysed by XRPD
Format: physicochemical
Settings: for FE: fast evaporative crystallization; for Results from Slow Evaporation Crystallization Experiments: slow evaporation at room temperature; for Slurry: slurry at 25° C., three days
Protocol: I. Fast Evaporative Crystallization Method (FE): compound A (ca. 30 mg) was dissolved in minimum quantity the stated solvent while heating at 80° C. The resulted solutions were filtered using a 0.45 μm PTFE syringe filter and the filtrate was collected. The filtrate was evaporated using a rotavap.
II. Slow Evaporative Crystallization Method (SE): compound A (ca. 30 mg) was dissolved in minimum quantity the stated solvent while heating at 80° C. The resulted solutions were filtered using a 0.45 μm PTFE syringe filter and the filtrate was collected. The filtrate was covered with perforated aluminum foil and left to evaporate at ambient temperature.
III. Slurry Crystallization at 25° C. using Form I of compound A: compound A (ca. 100 mg) was suspended in minimum quantity the stated solvent. The resulted slurries were allowed to stir at 25° C. for three days.
IV. Anti-Solvent Addition Crystallization: compound A (ca. 50 mg) was dissolved in solubilizing solvent. To that solution 200 μL anti-solvent was added slowly. These iterations were continued until the precipitation observed or maximum solvent quantity of ~25 mL. Many solvents were used as the solubilizing solvent in these experiments. Selection of anti-solvent for each solubilizing solvent is based on the miscibility between them.
V. Vapor Diffusion Crystallization: compound A (ca. 30 mg) was dissolved in solubilizing solvent and kept in a small (8 mL) vial. These vials were kept in a larger vial (40 mL) that had 15 mL anti-solvents and closed the vial cap to allow vapor diffusion between them. Many solvents were used as the solubilizing solvent in these experiments. Selection of anti-solvent for each solubilizing solvent is based on the miscibility between them. All the experiments were kept in undisturbed laboratory bench and observed periodically to see if any crystals were grown during that time.
Compound A was slurred in respective solvents and stirred at 25° C. for three days. A total of five unique XRPD patterns were identified and designated as Form I, Form II, Form III, Form IV, and Form V.
Compound A was dissolved in a suitable solvent while heating up to 80° C. and the resultant solutions were allowed to slowly evaporate at room temperature (25° C.).
Compound A was dissolved in suitable solvents. To those solutions anti-solvents were added to obtain the solids. The solvent and anti-solvent selection was based on the solubility of compound A and also miscibility between them.

[1] = solvent 14DOX, anti-solvent DEE
[2] = solvent 14DOX, anti-solvent T-Butyl Methyl Ether
[3] = solvent CHCl3, anti-solvent 4-Me-2Pentanone
[4] = solvent CHCl3, anti-solvent DEE
[5] = solvent CHCl3, anti-solvent T-Butyl Methyl Ether
[6] = solvent DCM, anti-solvent 4-Me-2Pentanone
[7] = solvent DCM, anti-solvent T-Butyl Methyl Ether
[8] = solvent DMSO, anti-solvent Water
[9] = solvent EtOAc, anti-solvent 4-Me-2Pentanone
[10] = solvent EtOAc, anti-solvent DEE
[11] = solvent EtOAc, anti-solvent T-Butyl Methyl Ether
[12] = solvent EtOH, anti-solvent 4-Me-2Pentanone
[13] = solvent EtOH, anti-solvent T-Butyl Methyl Ether
[14] = solvent EtOH, anti-solvent Water
[15] = solvent IPA, anti-solvent 4-Me-2Pentanone
[16] = solvent IPA, anti-solvent T-Butyl Methyl Ether
[17] = solvent MeOH, anti-solvent 4-Me-2Pentanone
[18] = solvent MeOH, anti-solvent T-Butyl Methyl Ether
[19] = solvent MeOH, anti-solvent Water
[20] = solvent THF, anti-solvent 4-Me-2Pentanone
[21] = solvent THF, anti-solvent T-Butyl Methyl Ether
[22] = solvent THF, anti-solvent Water

Compound: C[C@@H](Oc1ccc2[nH]nc(-c3ccc(N4CC5(C4)CN(S(C)(=O)=O)C5)nc3)c2c1)c1c(Cl)cncc1Cl [Compound A, 5-[(1R)-1-(3,5-dichloro-4-pyridyl)ethoxy]-3-[6-(2-methylsulfonyl-2,6-diazaspiro[3.3]heptan-6-yl)-3-pyridyl]-1H-indazole]
- FE (solvent 4-Me 2-Pentanone): Not Dissolved
- FE (solvent ACN): Form II
- FE (solvent Acetone): Form II
- FE (solvent CHCl3): Clear film
- FE (solvent DEE): Not Dissolved
- FE (solvent EtOAc): Form VIII
- FE (solvent EtOH): Form IV
- FE (solvent H2O): Not Dissolved
- FE (solvent IPA): Form IV
- FE (solvent MeOH): Form IV
- FE (solvent THF): Clear film
- FE (solvent tert-butyl methyl ether): Not Dissolved
- Results from Slow Evaporation Crystallization Experiments (solvent 1,2-Propdiol): Form IV
- Results from Slow Evaporation Crystallization Experiments (solvent 4-Me 2-Pentanone): Form I
- Results from Slow Evaporation Crystallization Experiments (solvent ACN): Form IV
- Results from Slow Evaporation Crystallization Experiments (solvent Acetone): Form IV and 5
- Results from Slow Evaporation Crystallization Experiments (solvent DCM): Form IV
- Results from Slow Evaporation Crystallization Experiments (solvent DEE): Form I
- Results from Slow Evaporation Crystallization Experiments (solvent DMF): Form IV
- Results from Slow Evaporation Crystallization Experiments (solvent DMSO): Form IV
- Results from Slow Evaporation Crystallization Experiments (solvent EtOAc): Form IV
- Results from Slow Evaporation Crystallization Experiments (solvent EtOH): Form IV
- Results from Slow Evaporation Crystallization Experiments (solvent Eth. Gly): Form IV
- Results from Slow Evaporation Crystallization Experiments (solvent H2O): Form I
- Results from Slow Evaporation Crystallization Experiments (solvent IPA): Form IV
- Results from Slow Evaporation Crystallization Experiments (solvent MeOH): Form II
- Results from Slow Evaporation Crystallization Experiments (solvent T-ButylMethEther): Form I
- Results from Slow Evaporation Crystallization Experiments (solvent THF): Form IV
- Slurry (solvent 1,2-Propdiol): Form I
- Slurry (solvent 4-Me 2-Pentanone): Form I
- Slurry (solvent 14DOX): Form VI
- Slurry (solvent ACN): Form III
- Slurry (solvent Acetone): Form II
- Slurry (solvent CHCl3): Form III
- Slurry (solvent DCM): Form II
- Slurry (solvent DEE): Form I
- Slurry (solvent DMF): Form VII
- Slurry (solvent EtOAc): Form I
- Slurry (solvent EtOH): Form I
- Slurry (solvent Eth. Gly): Form I
- Slurry (solvent H2O): Form I
- Slurry (solvent IPA): Form I
- Slurry (solvent MeOH): Form II
- Slurry (solvent T-ButylMethEther): Form I
- Slurry (solvent THF): Form III
- Results of Anti-Solvent Addition Studies (solvent 14DOX, anti-solvent 4-Me-2Pentanone): No XRPD -
- Results of Anti-Solvent Addition Studies [1]: Form II
- Results of Vapor Diffusion Studies [1]: Form VIII
- Results of Anti-Solvent Addition Studies [2]: Form I
- Results of Vapor Diffusion Studies [2]: Form VIII
- Results of Anti-Solvent Addition Studies (solvent 14DOX, anti-solvent Water): Form V
- Results of Anti-Solvent Addition Studies (solvent ACN, anti-solvent 4-Me-2Pentanone): No XRPD -
- Results of Anti-Solvent Addition Studies (solvent ACN, anti-solvent DEE): No XRPD -
- Results of Anti-Solvent Addition Studies (solvent ACN, anti-solvent T-Butyl Methyl Ether): Form IV
- Results of Anti-Solvent Addition Studies (solvent ACN, anti-solvent Water): Form V +
- Results of Anti-Solvent Addition Studies (solvent Acetone, anti-solvent 4-Me-2Pentanone): No XRPD -
- Results of Anti-Solvent Addition Studies (solvent Acetone, anti-solvent DEE): Form II
- Results of Anti-Solvent Addition Studies (solvent Acetone, anti-solvent T-Butyl Methyl Ether): Form I
- Results of Anti-Solvent Addition Studies (solvent Acetone, anti-solvent Water): Form V
- Results of Anti-Solvent Addition Studies [3]: Form II
- Results of Vapor Diffusion Studies [3]: Form I +
- Results of Anti-Solvent Addition Studies [4]: Form I
- Results of Vapor Diffusion Studies [4]: Form VIII
- Results of Anti-Solvent Addition Studies [5]: Form I
- Results of Vapor Diffusion Studies [5]: Form I
- Results of Anti-Solvent Addition Studies [6]: Form IV
- Results of Vapor Diffusion Studies [6]: Form I +
- Results of Anti-Solvent Addition Studies (solvent DCM, anti-solvent DEE): Form II
- Results of Vapor Diffusion Studies (solvent DCM, anti-solvent DEE): Form IV
- Results of Anti-Solvent Addition Studies [7]: Form I
- Results of Vapor Diffusion Studies [7]: Form I +
- Results of Anti-Solvent Addition Studies (solvent DMF, anti-solvent 4-Me-2Pentanone): No XRPD -
- Results of Anti-Solvent Addition Studies (solvent DMF, anti-solvent DEE): Form VIII
- Results of Anti-Solvent Addition Studies (solvent DMF, anti-solvent T-Butyl Methyl Ether): Form II
- Results of Anti-Solvent Addition Studies (solvent DMF, anti-solvent Water): Form II
- Results of Anti-Solvent Addition Studies (solvent DMSO, anti-solvent T-Butyl Methyl Ether): Form IV
- Results of Anti-Solvent Addition Studies [8]: Amorphous
- Results of Vapor Diffusion Studies [8]: Form IV +
- Results of Anti-Solvent Addition Studies [9]: Form IV +
- Results of Vapor Diffusion Studies [9]: Form IV
- Results of Anti-Solvent Addition Studies [10]: Form IV
- Results of Vapor Diffusion Studies [10]: Form IV
- Results of Anti-Solvent Addition Studies [11]: Form I
- Results of Vapor Diffusion Studies [11]: Form IV
- Results of Anti-Solvent Addition Studies [12]: No XRPD -
- Results of Vapor Diffusion Studies [12]: No XRPD -
- Results of Anti-Solvent Addition Studies (solvent EtOH, anti-solvent DEE): Form IV
- Results of Vapor Diffusion Studies (solvent EtOH, anti-solvent DEE): Form IV
- Results of Anti-Solvent Addition Studies [13]: Form IV
- Results of Vapor Diffusion Studies [13]: Form IV
- Results of Anti-Solvent Addition Studies [14]: Form IV +
- Results of Vapor Diffusion Studies [14]: Form IV +
- Results of Anti-Solvent Addition Studies [15]: No XRPD -
- Results of Vapor Diffusion Studies [15]: Form IV
- Results of Anti-Solvent Addition Studies (solvent IPA, anti-solvent DEE): Form IV
- Results of Vapor Diffusion Studies (solvent IPA, anti-solvent DEE): Form IV
- Results of Anti-Solvent Addition Studies [16]: Form IV
- Results of Vapor Diffusion Studies [16]: Form IV +
- Results of Anti-Solvent Addition Studies (solvent IPA, anti-solvent Water): Form IV +
- Results of Anti-Solvent Addition Studies [17]: No XRPD -
- Results of Vapor Diffusion Studies [17]: No XRPD -
- Results of Anti-Solvent Addition Studies (solvent MeOH, anti-solvent DEE): Form II
- Results of Anti-Solvent Addition Studies [18]: Form II
- Results of Vapor Diffusion Studies [18]: Form II
- Results of Anti-Solvent Addition Studies [19]: Form II
- Results of Vapor Diffusion Studies [19]: Form II
- Results of Anti-Solvent Addition Studies [20]: Form I
- Results of Vapor Diffusion Studies [20]: Form II
- Results of Anti-Solvent Addition Studies (solvent THF, anti-solvent DEE): Form II
- Results of Vapor Diffusion Studies (solvent THF, anti-solvent DEE): Form IV
- Results of Anti-Solvent Addition Studies [21]: Form I
- Results of Vapor Diffusion Studies [21]: Form VIII
- Results of Anti-Solvent Addition Studies [22]: Form V
- Results of Vapor Diffusion Studies [22]: Form V
